Read-outs that look alike come from different tables or passages of the source.
Key:
[1] = tested on: TNFα; test: Cot Monocyte TNFα Cell Based Assay
[2] = biological target: Human Cot (Homo sapiens (Human), UniProt P41279); test: High Throughput Cot Biochemical Assay; conditions: Cot HTRF (TR-FRET) biochemical assay
[3] = Homo sapiens, Monocyte, read-out: EC50 TNF, LPS-stimulated human monocytes, TNFα
[4] = read-out: EC50 TNF, LPS-stimulated human monocytes, TNFα

Chain of Human Cot (P41279 30-397): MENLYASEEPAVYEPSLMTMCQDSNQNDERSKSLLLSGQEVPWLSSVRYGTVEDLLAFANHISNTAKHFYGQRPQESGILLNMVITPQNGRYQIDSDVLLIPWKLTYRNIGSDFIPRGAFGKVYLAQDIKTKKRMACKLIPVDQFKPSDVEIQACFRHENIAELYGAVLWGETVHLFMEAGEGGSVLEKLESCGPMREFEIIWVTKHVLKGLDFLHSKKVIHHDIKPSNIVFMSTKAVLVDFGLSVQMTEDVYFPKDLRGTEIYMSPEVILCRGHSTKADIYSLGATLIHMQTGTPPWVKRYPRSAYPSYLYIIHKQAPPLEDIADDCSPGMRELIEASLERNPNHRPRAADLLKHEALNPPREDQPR

Row | EC50 [1, 3] [nM] | IC50 ([2]; IC50 HTRF) [nM] | EC50 [1, 4] [nM] | IC50 ([2]; read-out: IC50 HTRF) [nM] | Structure (SMILES)
1 | 10800 | 58 |  |  | N#Cc1cnc2c(Cl)cc(N[C@@H](c3ccc4c(c3)CNC4)c3c[nH]nn3)cc2c1Nc1ccc(F)c(Cl)c1 [Example 55, (S)-8-chloro-4-((3-chloro-4-fluorophenyl)amino)-6-((isoindolin-5-yl(1H-1,2,3-triazol-4-yl)methyl)amino)quinoline-3-carbonitrile]
2 | 2520 | 6 |  |  | N#Cc1cnc2c(Cl)cc(N[C@H](c3c[nH]nn3)c3cccc4c3CNC4)cc2c1Nc1ccc(F)c(Cl)c1 [Example 56, (S)-8-chloro-4-((3-chloro-4-fluorophenyl)amino)-6-((isoindolin-4-yl(1H-1,2,3-triazol-4-yl)methyl)amino)quinoline-3-carbonitrile]
3 | 5990 | 60 |  |  | CC(C)(C)N1CCC(n2cc([C@@H](Nc3cc(Cl)c4ncc(C#N)c(Nc5ccc(F)c(Cl)c5)c4c3)c3ccc4c(c3)CNC4)nn2)CC1 [Example 57, (S)-6-(((1-(1-(tert-butyl)piperidin-4-yl)-1H-1,2,3-triazol-4-yl)(isoindolin-5-yl)methyl)amino)-8-chloro-4-((3-chloro-4-fluorophenyl)amino)quinoline-3-carbonitrile]
4 | 2980 | 72 |  |  | CCN1Cc2ccc([C@H](Nc3cc(Cl)c4ncc(C#N)c(Nc5ccc(F)c(Cl)c5)c4c3)c3cn(C4CCN(C(C)(C)C)CC4)nn3)cc2C1 [Example 58, (S)-6-(((1-(1-(tert-butyl)piperidin-4-yl)-1H-1,2,3-triazol-4-yl)(2-ethylisoindolin-5-yl)methyl)amino)-8-chloro-4-((3-chloro-4-fluorophenyl)amino)quinoline-3-carbonitrile]
5 | 892 | 2 |  |  | CC(C)(C)N1CCC(n2cc([C@@H](Nc3cc(Cl)c4ncc(C#N)c(Nc5ccc(F)c(Cl)c5)c4c3)c3cccc4c3CNC4)nn2)CC1 [Example 59, (S)-6-(((1-(1-(tert-butyl)piperidin-4-yl)-1H-1,2,3-triazol-4-yl)(isoindolin-4-yl)methyl)amino)-8-chloro-4-((3-chloro-4-fluorophenyl)amino)quinoline-3-carbonitrile]
6 |  |  | 238 | 11 | CC(C)n1cc([C@@H](Nc2cc(Cl)c3ncc(C#N)c(Nc4ccc(F)c(Cl)c4)c3c2)c2ccc3ncsc3c2)nn1 [Example 61, (S)-6-((benzo[d]thiazol-6-yl(1-isopropyl-1H-1,2,3-triazol-4-yl)nielhyl)amino)-8-chloro-4-((3-chloro-4-fluorophenyl)amino)quinoline-3-carbonitrile]
7 | 216 | 10 |  |  | CC(C)(C)N1CCC(n2cc([C@@H](Nc3cc(Cl)c4ncc(C#N)c(Nc5ccc(F)c(Cl)c5)c4c3)c3ccc4scnc4c3)nn2)CC1 [Example 62, (S)-6-((benzo[d]thiazol-5-yl(1-(1-(tert-butyl)piperidin-4-yl)-1H-1,2,3-triazol-4-yl)methyl)amino)-8-chloro-4-((3-chloro-4-fluorophenyl)amino)quinoline-3-carbonitrile]
8 | 2650 | 42 |  |  | CC(C)(C)N1CCC(n2cc([C@@H](Nc3cc(Cl)c4ncc(C#N)c(Nc5ccc(F)c(Cl)c5)c4c3)c3ccc4sccc4c3)nn2)CC1 [Example 64, (S)-6-((benzo[b]thiophen-5-yl(1-(1-(tert-butyl)piperidin-4-yl)-1H-1,2,3-triazol-4-yl)methyl)amino)-8-chloro-4-((3-chloro-4-fluorophenyl)amino)quinoline-3-carbonitrile]
9 | 32 | 1 |  |  | CC(C)(C)CNc1c(C#N)cnc2c(C#N)cc(N[C@H](c3cn(C4(C#N)CC4)nn3)c3cccc4ncsc34)cc12 [Example 67, (S)-6-((benzo[d]thiazol-7-yl(1-(1-cyanocyclopropyl)-1H-1,2,3-triazol-4-yl)methyl)amino)-4-(neopentylamino)quinoline-3,8-dicarbonitrile]
10 | 51 | 1 |  |  | N#CCC[C@@H](Nc1c(C#N)cnc2c(Cl)cc(N[C@H](c3cn(C4CC4)nn3)c3cccc4c3CNC4)cc12)c1ccccc1 [Example 68, 8-chloro-4-(((R)-3-cyano-1-phenyl-propyl)amino)-6-(((S)-(1-cyclopropyl-1H-1,2,3-triazol-4-yl)(isoindolin-4-yl)methyl)amino)quinoline-3-carbonitrile]
11 | 33 | 2 |  |  | N#CCC[C@@H](Nc1c(C#N)cnc2c(Cl)cc(N[C@H](c3cn(C4CC4)nn3)c3cccc4ncsc34)cc12)c1ccccc1 [Example 69, 6-(((S)-benzo[d]thiazol-7-yl(1-cyclopropyl-1H-1,2,3-triazol-4-yl)methyl)amino)-8-chloro-4-(((R)-3-cyano-1-phenylpropyl)amino)quinoline-3-carbonitrile]
12 | 804 | 19 |  |  | CC(C)(C)CNc1c(C#N)cnc2c(Br)cc(N[C@H](c3cn(C4CC4)nn3)c3cccc4nc(N)sc34)cc12 [Example 70, (S)-6-(((2-aminobenzo[d]thiazol-7-yl)(1-cyclopropyl-1H-1,2,3-triazol-4-yl)methyl)amino)-8-bromo-4-(neopentylamino)quinoline-3-carbonitrile]
13 | 79 | 2 |  |  | N#CCC[C@@H](Nc1c(C#N)cnc2c(Cl)cc(N[C@@H](c3cccnc3)c3cn(C4CC4)nn3)cc12)c1ccccc1 [Example 75, 8-chloro-4-(((R)-3-cyano-1-phenylpropyl)amino)-6-(((S)-(1-cyclopropyl-1H-1,2,3-triazol-4-yl)(pyridin-3-yl)methyl)amino)quinoline-3-carbonitrile]
14 | 154 | 3 |  |  | CN1Cc2cccc([C@H](Nc3cc(C#N)c4ncc(C#N)c(NCC(C)(C)C)c4c3)c3cn(C4CC4)nn3)c2C1=O [Example 77, (S)-6-(((1-cyclopropyl-1H-1,2,3-triazol-4-yl)(2-methyl-3-oxoisoindolin-4-yl)methyl)amino)-4-(neopentylamino)quinoline-3,8-dicarbonitrile]
15 | 332 | 3 |  |  | CC(C)(C)CNc1c(C#N)cnc2c(Br)cc(N[C@H](c3cn(C4CC4)nn3)c3cccc4c3C(=O)NC4)cc12 [Example 78, (S)-8-bromo-6-(((1-cyclopropyl-1H-1,2,3-triazol-4-yl)(3-oxoisoindolin-4-yl)methyl)amino)-4-(neopentylamino)quinoline-3-carbonitrile]
16 |  |  | > 1000 | 400 | CC(C)(C)CNc1c(C#N)cnc2c(Cl)cc(N[C@@H](c3cn(C4CC4)nn3)c3csc4c3CCN(C3COC3)C4)cc12 [Example 81, (R)-8-chloro-6-(((1-cyclopropyl-1H-1,2,3-triazol-4-yl)(6-(oxctan-3-yl)-4,5,6,7-tetrahydrothieno[2,3-c]pyridin-3-yl)methyl)amino)-4-(neopentylamino)-quinoline-3-carbonitrile]
17 |  |  | 151 | 2 | N#CCCC(Nc1c(C#N)cnc2c(Cl)cc(N[C@H](c3cn(C4[C@H]5CN(C6COC6)C[C@@H]45)nn3)c3csc4c3CCN(C3COC3)C4)cc12)c1ccccc1 (stereo partly drawn) [Example 82, 8-chloro-4-((3-cyano-1-phenylpropyl)amino)-6-(((S)-(1-((1R,5S,6r)-3-(oxetan-3-yl)-3-azabicyclo[3.1 0]hexan-6-yl)-1H-1,2,3-triazol-4-yl)(6-(oxetan-3-yl)-4,5,6,7-tetrahydrothieno[2,3-c]pyridin-3-yl)methyl)amino)-quinoline-3-carbonitrile]
18 |  |  | 1000 | 942 | N#CCCC(Nc1c(C#N)cnc2c(Cl)cc(N[C@@H](c3cn(C4CC4)nn3)c3csc4c3CCN(C3COC3)C4)cc12)c1ccccc1 (stereo partly shown) [Example 83, 8-chloro-4-((3-cyano-1-phenylpropyl)amino)-6-(((RH 1-cyclopropyl-1H-1,2,3-triazol-4-yl)(6-(oxetan-3-yl)-4,5,6,7-tetrahydrothieno[2,3-c]pyridin-3-yl)methyl)amino)-quinoline-3-carbonitrile]
19 | 10 | 1 |  |  | N#CCC[C@@H](Nc1c(C#N)cnc2c(Cl)cc(N[C@H](c3cn(C4CC4)nn3)c3csc4c3CCN(C3COC3)C4)cc12)c1ccccc1 [Example 84, 8-chloro-4-(((R)-3-cyano-1-phenylpropyl)amino)-6-(((S)-(1-cyclopropyl-1H-1,2,3-triazol-4-yl)(6-(oxetan-3-yl)-4,5,6,7-tetrahydrothieno[2,3-c]pyridin-3-yl)methyl)amino)quinoline-3-carbonitrile]
20 | > 1000 | 4 |  |  | [2H][C@](Nc1cc(Cl)c2ncc(C#N)c(NCC(C)(C)C)c2c1)(c1ccc(F)nc1)c1cn(CC(=O)O)nn1 [Example 85, (S)-2-(4-(((8-chloro-3-cyano-4-(neopentylamino)quinolin-6-yl)amino)(6-fluoropyridin-3-yl)methyl-d)-1H-1,2,3-triazol-1-yl)acetic acid]
21 | > 1000 | 1160 |  |  | [2H]C(Nc1cc(Cl)c2ncc(C#N)c(N[C@@H](CCC#N)c3ccccc3)c2c1)(c1ccc(F)nc1)c1cn(C2CC2)nn1 (stereo partly drawn) [Example 88, 8-chloro-4-(((S)-3-cyano-1-phenylpropyl)amino)-6-(((1-cyclopropyl-1H-1,2,3-triazol-4-yl)(6-fluoropyridin-3-yl)methyl-d)amino)quinoline-3-carbonitrile]
22 | > 1000 | 520 |  |  | [2H]C(Nc1cc(Cl)c2ncc(C#N)c(N[C@H](CCC#N)c3ccccc3)c2c1)(c1ccc(F)nc1)c1cn(C2CC2)nn1 (stereo partly drawn) [Example 89, 8-chloro-4-(((R)-3-cyano-1-phenylpropyl)amino)-6-(((1-cyclopropyl-1H-1,2,3-triazol-4-yl)(6-fluoropyridin-3-yl)methyl-d)amino)quinoline-3-carbonitrile]
23 | 18 | 1 |  |  | N#CCCC(Nc1c(C#N)cnc2c(Cl)cc(N[C@H](c3cn(C4CC4)nn3)c3csc4c3CCN(C3COC3)C4)cc12)c1ccccc1 (stereo partly drawn) [Example 90, 8-chloro-4-((3-cyano-1-phenyl-propyl)amino)-6-(((S)-(1-cyclopropyl-1H-1,2,3-triazol-4-yl)(6-(oxetan-3-yl)-4,5,6,7-tetrahydrothieno[2,3-c]pyridin-3-yl)methyl)amino)quinoline-3-carbonitrile]
